The target of series [1] is recombinant PI3K δ enzyme (Homo sapiens (Human), UniProt O00329). The series is described as follows: In vitro enzyme assay (Kinase-Glo luminescent kinase assay), PI3Kδ. It counts as biochemical. Put shortly:
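Each recombinant human PI3K isoform at 2.29 μg/mL with 60 μM PIP2 and 10 μM ATP in HEPES pH 7.4, NaCl, CHAPS, MgCl2, DTT, 2 hours at room temperature. Remaining ATP read by Kinase-Glo luminescence relative to no-enzyme blanks.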
(In general: In Kinase-Glo more light means more ATP remaining.)

Series [2] can be described thus: Solubility in Japanese Pharmacopeia First Fluid (JP1) and Second Fluid (JP2). The conditions noted are these: thermodynamic from solid, room temperature. It counts as physicochemical. As to the method: A 10 mmol/L solution of the test compound was prepared in DMSO and dispensed 100 μL of 10 mmol/L DMSO stock solutions into labeled glass tubes in duplicate, one for Japanese Pharmacopeia First Fluid (JP1) and second for Japanese Pharmacopeia Second Fluid (JP2). After evaporation of DMSO from each tube, 500 μL of JP1 and JP2 fluid were added in each tube, respectively. These tubes were sonicated for 1 minute and placed on shaker for 30 minutes with an interval of 30 seconds at every 5 minute. Tubes were placed in dark at room temperature for 1 hour and solution was filtered through membrane filter. The filtrate was diluted 2-fold and 10-fold. The resulting test solutions was analyzed and quantified against the standards using UPLC (standard preparation-10 mmol/L solution in DMSO is serially diluted with 50% aqueous acetonitrile solution to prepare 2 solutions; 100 μmol/L standard solution and 5 μmol/L standard solution).

Series [3] concerns IFN-γ release in mouse splenocytes. Briefly: Phytohaemagglutinin (PHA)-induced interferon (IFN)-gamma release in mouse splenocytes. Details: species or system C57BL/6 mouse. The conditions noted are these: Splenocyte, PHA (10 μg/ml) for 48 hours, IFN-γ by ELISA, read-out: Cell Based IC50. As to the method:
Effect of compounds on mitogen-induced IFN-γ release in mouse splenocytes was used to evaluate their potency in cell-based assay system [Blood (2010) 115: 2203-2213; Current Protocols in Immunology (2004) 3.12.1-3.12.20].
Mouse splenocytes were obtained from the spleen of a C57BL/6 mouse and plated at a density of 0.25 million cells/well in a 96 well tissue culture plate. The effect of the compounds to inhibit IFN-γ release was evaluated by treating the splenocytes with various concentrations of the test compounds followed by stimulation with PHA (10 μg/ml) for 48 hours. The IFN-γ release in the cell culture supernatant was quantified by ELISA as per the manufacturer's protocol (BD Biosciences, #555138).

Series [4] has as its target PI3Kα (Homo sapiens (Human), UniProt P42336). The series is described as follows: In vitro enzyme assay (Kinase-Glo), selectivity, PI3Kα. The conditions noted are these: enzyme 2.29 μg/mL; ATP 10 μM; PIP2 60 μM; 2 hours. It counts as biochemical. As to the method:
(§1) The Kinase-Glo luminescent kinase assay kit (from Promega) was used to measure kinase activity. In this assay, amount of ATP remaining in solution following a kinase reaction is measured. The effect of compounds on PI3Kδ inhibition was carried out by adding 2.29 μg/ml of recombinant PI3K δ enzyme (Proteros, Germany) to reaction mixture containing assay buffer (50 mM HEPES, pH 7.4, 50 mM NaCl, 0.05% CHAPS) supplemented with 10 mM MgCl2, 5 mM DTT, 60 μM Phosphatidyl inositol bisphosphate (PIP2) and 10 μM ATP in the absence or presence of different concentrations of the compounds in a final volume of 15 μl/well, in a 384 well plate. The reaction mixture was incubated for 2 hours at room temperature. At the end of incubation period the equal volume of Kinase-Glo plus (Promega, V3772), was added per well and the luminescence was measured after incubating for 10 minutes at room temperature in dark. Results were calculated by measuring the luminescence units of test samples to blanks containing no enzyme.
(§2) The compounds of the present invention were tested for their selectivity for PI3Kδ over PI3Kα, PI3Kβ and PI3Kγ following the above assay using specific recombinant enzymes (Proteros, Germany) for each kinase. Assay condition of kinase assay (PI3Kα, PI3Kβ, PI3Kγ and PI3Kδ) was as follows. Enzyme: 2.29 μg/mL; ATP: 10 μM; PIP2 substrate: 60 μM and Reaction Time: 2 hours.

Series [5] concerns the target PI3Kγ (Homo sapiens (Human), UniProt P48736). Briefly: In vitro enzyme assay (Kinase-Glo), selectivity, PI3Kγ. It counts as biochemical. The settings on record: enzyme 2.29 μg/mL; ATP 10 μM; PIP2 60 μM; 2 hours. As to the method:
The Kinase-Glo luminescent kinase assay kit (from Promega) was used to measure kinase activity. In this assay, amount of ATP remaining in solution following a kinase reaction is measured. […] The reaction mixture was incubated for 2 hours at room temperature. At the end of incubation period the equal volume of Kinase-Glo plus (Promega, V3772), was added per well and the luminescence was measured after incubating for 10 minutes at room temperature in dark. Results were calculated by measuring the luminescence units of test samples to blanks containing no enzyme.
The compounds of the present invention were tested for their selectivity for PI3Kδ over PI3Kα, PI3Kβ and PI3Kγ following the above assay using specific recombinant enzymes (Proteros, Germany) for each kinase. Assay condition of kinase assay (PI3Kα, PI3Kβ, PI3Kγ and PI3Kδ) was as follows.

Series [6] deals with PI3Kβ (Homo sapiens (Human), UniProt P42338). The series is described as follows: In vitro enzyme assay (Kinase-Glo), selectivity, PI3Kβ. It counts as biochemical. The conditions noted are these: enzyme 2.29 μg/mL; ATP 10 μM; PIP2 60 μM; 2 hours. As to the method: as §1, §2
Chain of PI3Kβ (P42338 whole entry, species assumed): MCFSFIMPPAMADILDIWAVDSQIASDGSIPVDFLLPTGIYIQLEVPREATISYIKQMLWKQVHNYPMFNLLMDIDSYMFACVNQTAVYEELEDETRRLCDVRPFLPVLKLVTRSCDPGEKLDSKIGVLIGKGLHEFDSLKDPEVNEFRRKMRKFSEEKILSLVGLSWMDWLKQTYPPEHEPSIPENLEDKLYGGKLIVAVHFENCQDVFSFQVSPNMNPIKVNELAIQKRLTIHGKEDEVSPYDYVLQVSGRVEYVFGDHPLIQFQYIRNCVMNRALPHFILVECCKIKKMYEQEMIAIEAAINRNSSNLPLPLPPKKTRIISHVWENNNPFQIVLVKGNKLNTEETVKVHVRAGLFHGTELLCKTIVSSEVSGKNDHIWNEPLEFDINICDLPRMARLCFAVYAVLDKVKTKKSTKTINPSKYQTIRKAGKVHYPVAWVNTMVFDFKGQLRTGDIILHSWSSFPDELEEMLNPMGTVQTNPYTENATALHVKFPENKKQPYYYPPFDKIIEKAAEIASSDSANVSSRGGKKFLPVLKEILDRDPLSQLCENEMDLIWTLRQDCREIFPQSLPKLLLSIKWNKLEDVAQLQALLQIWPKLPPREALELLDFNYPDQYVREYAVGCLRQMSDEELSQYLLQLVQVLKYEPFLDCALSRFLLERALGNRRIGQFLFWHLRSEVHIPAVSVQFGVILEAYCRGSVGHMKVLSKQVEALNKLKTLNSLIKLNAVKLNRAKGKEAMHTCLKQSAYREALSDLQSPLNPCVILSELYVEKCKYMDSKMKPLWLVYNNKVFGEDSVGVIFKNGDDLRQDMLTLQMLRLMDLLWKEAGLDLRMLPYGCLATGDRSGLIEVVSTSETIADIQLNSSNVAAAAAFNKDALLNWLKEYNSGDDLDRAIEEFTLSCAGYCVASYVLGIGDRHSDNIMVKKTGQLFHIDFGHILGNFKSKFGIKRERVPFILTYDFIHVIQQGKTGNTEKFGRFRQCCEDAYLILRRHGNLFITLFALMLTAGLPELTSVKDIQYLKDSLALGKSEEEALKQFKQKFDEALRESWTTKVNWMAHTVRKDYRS
Chain of PI3Kβ (P27986 whole entry partner, species assumed): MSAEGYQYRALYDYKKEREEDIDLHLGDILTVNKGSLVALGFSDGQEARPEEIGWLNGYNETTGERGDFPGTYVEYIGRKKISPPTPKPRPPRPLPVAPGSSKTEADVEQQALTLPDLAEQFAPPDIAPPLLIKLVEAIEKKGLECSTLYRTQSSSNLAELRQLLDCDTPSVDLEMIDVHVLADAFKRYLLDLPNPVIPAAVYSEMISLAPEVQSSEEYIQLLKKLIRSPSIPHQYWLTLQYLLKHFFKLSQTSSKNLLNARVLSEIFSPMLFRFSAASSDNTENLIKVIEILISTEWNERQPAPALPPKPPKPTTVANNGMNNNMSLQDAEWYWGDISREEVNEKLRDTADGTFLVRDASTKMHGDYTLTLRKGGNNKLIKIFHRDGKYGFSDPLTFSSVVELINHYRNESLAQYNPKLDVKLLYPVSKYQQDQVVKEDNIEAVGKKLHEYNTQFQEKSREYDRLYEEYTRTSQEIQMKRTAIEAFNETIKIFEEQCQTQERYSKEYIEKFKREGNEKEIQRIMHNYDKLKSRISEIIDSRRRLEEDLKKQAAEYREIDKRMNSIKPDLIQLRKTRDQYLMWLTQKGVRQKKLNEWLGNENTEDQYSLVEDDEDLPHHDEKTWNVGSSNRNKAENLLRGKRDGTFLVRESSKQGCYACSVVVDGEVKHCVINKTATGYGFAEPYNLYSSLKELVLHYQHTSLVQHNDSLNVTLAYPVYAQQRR
Setting [7] is: pH 1.2, simulated gastric fluid, Japanese Pharmacopeia First Fluid (JP1), read-out: Solubility JP1.
Where [8] appears, read: pH 6.8, aqueous buffer, Japanese Pharmacopeia Second Fluid (JP2), read-out: Solubility JP2.
Setting [9] is: enzyme 2.29 μg/mL, ATP 10 μM, PIP2 60 μM, 2 hours.

This is an account of results in patent US10174035B2, “6-morpholinyl-2-pyrazolyl-9H-purine derivatives and their use as PI3K inhibitors” (Daiichi Sankyo Company, Limited, priority 2015, dated 2019).

The structures appear in SMILES notation. Values after ≈ are worked out from the molar mass of the structure shown. Like-named read-outs stand apart in the source and are kept apart here.

Chain of recombinant PI3K δ enzyme (O00329 whole entry, species assumed, canonical isoform): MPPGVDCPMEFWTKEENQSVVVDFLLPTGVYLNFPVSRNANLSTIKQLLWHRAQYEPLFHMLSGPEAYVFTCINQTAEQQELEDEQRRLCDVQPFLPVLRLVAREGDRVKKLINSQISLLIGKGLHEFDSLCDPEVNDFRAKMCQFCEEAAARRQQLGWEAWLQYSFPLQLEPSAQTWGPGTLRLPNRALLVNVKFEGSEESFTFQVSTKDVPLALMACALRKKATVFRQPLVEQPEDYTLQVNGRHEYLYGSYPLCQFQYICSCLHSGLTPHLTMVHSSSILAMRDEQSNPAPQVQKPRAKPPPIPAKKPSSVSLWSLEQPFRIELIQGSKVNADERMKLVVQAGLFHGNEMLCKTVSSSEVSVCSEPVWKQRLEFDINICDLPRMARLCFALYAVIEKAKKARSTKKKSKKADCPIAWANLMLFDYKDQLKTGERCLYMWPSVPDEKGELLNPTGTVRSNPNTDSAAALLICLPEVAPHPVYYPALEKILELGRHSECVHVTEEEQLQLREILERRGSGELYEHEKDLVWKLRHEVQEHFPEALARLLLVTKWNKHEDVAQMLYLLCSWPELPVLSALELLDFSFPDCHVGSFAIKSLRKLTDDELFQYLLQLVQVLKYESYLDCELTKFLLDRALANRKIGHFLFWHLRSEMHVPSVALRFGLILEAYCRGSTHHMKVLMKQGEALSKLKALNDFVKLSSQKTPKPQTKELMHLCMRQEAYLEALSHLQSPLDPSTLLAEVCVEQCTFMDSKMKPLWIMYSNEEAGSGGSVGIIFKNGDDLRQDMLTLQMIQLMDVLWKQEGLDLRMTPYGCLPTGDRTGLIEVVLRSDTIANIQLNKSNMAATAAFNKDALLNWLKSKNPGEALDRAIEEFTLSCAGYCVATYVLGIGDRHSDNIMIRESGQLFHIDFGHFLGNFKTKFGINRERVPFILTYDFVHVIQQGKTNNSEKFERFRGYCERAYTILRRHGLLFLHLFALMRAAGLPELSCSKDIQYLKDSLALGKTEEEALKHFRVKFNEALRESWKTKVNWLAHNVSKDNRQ
Chain of recombinant PI3K δ enzyme (P27986 whole entry partner, species assumed, canonical isoform): as the sequence (P27986 whole entry partner, species assumed) above
Chain of PI3Kα (P42336 whole entry, species assumed): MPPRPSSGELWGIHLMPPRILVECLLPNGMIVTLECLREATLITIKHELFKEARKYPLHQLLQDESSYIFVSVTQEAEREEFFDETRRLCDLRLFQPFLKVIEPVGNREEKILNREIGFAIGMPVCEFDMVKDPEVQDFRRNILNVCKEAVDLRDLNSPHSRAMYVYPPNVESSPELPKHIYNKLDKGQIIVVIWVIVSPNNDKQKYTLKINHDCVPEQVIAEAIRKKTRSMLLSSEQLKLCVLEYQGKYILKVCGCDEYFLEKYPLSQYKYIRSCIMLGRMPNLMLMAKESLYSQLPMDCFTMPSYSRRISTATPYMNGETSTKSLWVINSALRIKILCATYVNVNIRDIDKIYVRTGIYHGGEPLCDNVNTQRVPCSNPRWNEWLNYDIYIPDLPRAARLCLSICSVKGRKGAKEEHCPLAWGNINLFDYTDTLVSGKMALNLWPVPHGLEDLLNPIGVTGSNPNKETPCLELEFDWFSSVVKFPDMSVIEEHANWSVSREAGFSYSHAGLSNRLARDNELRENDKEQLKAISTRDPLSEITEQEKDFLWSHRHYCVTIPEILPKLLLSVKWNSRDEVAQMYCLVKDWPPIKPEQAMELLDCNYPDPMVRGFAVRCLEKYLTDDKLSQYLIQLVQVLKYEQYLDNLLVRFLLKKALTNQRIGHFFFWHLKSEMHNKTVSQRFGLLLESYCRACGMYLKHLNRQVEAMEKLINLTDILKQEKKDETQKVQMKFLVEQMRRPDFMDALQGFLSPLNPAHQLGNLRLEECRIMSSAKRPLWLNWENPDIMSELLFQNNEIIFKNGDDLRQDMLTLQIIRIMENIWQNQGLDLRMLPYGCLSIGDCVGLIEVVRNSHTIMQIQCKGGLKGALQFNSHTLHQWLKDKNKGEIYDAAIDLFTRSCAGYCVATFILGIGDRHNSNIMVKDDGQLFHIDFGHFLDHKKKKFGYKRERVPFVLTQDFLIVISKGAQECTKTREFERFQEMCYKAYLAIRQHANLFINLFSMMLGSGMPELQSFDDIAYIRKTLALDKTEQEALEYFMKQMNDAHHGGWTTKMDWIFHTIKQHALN
Chain of PI3Kα (P27986 whole entry partner, species assumed): as the sequence (P27986 whole entry partner, species assumed) above
Chain of PI3Kγ (P48736 whole entry, species assumed): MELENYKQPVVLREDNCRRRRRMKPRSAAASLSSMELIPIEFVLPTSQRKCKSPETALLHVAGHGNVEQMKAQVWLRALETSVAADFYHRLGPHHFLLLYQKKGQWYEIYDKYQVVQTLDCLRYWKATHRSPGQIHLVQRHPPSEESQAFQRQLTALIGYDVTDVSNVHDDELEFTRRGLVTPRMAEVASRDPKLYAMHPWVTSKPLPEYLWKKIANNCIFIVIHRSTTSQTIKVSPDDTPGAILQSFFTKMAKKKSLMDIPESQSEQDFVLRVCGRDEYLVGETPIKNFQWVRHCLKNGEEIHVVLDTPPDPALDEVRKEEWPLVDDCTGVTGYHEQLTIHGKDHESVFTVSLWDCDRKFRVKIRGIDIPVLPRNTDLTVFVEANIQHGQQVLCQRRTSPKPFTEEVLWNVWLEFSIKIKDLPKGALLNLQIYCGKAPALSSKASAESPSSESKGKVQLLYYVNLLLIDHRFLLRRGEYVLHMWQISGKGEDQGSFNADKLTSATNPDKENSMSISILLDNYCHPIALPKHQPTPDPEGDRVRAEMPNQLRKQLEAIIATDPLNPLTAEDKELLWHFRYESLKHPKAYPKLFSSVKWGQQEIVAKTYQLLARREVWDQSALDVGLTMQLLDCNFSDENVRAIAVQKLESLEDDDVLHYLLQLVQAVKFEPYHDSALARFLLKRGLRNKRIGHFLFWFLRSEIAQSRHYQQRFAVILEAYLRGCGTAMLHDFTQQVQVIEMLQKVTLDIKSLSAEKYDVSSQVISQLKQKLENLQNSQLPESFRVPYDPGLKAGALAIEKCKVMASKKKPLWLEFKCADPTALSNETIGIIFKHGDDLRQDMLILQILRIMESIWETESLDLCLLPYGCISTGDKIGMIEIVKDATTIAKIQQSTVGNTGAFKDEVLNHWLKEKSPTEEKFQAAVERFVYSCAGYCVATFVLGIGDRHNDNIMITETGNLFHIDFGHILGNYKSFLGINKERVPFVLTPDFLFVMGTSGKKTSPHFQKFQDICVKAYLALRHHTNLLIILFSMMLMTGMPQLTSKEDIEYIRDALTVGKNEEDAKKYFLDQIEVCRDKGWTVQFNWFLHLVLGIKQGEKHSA

For `CN(C)C1CCN(C(=O)c2nc3c(N4CCOCC4)c(F)c(-c4cnn(C)c4)nc3[nH]2)CC1` [compound 99, [4-(Dimethylamino)piperidin-1-yl][6-fluoro-5-(1-methyl-1H-pyrazol-4-yl)-7-(morpholin-4-yl)-3H-imidazo[4,5-b]pyridin-2-yl]methanone], the IC50 (usually the concentration that inhibits the measured activity by half) in series [1] was 29 nM. Also, the values for the solubility at 30 min in series [2] (setting [7]) and in series [2] (setting [8]) were 816 µg/mL (≈ 1790 µM) and 321 µg/mL (≈ 703 µM), respectively.

For `Cn1cc(-c2cc(N3CCOCC3)c3nc(C(=O)N4CCC(N5CCOCC5=O)CC4)[nH]c3n2)cn1` [compound 77, 4-(1-{[5-(1-Methyl-1H-pyrazol-4-yl)-7-(morpholin-4-yl)-3H-imidazo[4,5-b]pyridin-2-yl]carbonyl}piperidin-4-yl)morpholin-3-one], in series [1], the half-inhibitory concentration (IC50) worked out at 9 nM. Further, the solubility – broadly, the concentration that dissolves in the medium under given conditions – at 30 min is 1430 µg/mL (≈ 2890 µM) in series [2] (setting [7]) and 251 µg/mL (≈ 508 µM) in series [2] (setting [8]).

For `Cc1nn(C)cc1-c1nc2[nH]c(C(=O)N3CCC(C(N)=O)CC3)nc2c(N2CCOCC2)c1F` [compound 85, 1-{[5-(1,3-Dimethyl-1H-pyrazol-4-yl)-6-fluoro-7-(morpholin-4-yl)-3H-imidazo[4,5-b]pyridin-2-yl]carbonyl}piperidine-4-carboxamide], the IC50 in series [3] is 1270 nM; in series [1], 19 nM; in series [1] (setting [9]), 19 nM; in series [4], above 1000 nM; in series [5], above 1 µM; in series [6], above 10 µM.

As for `Cc1nn(C)cc1-c1nc(N2CCOCC2)c2nc(C(=O)N3CCC(N4CCOCC4)CC3)[nH]c2n1` [compound 41, [2-(1,3-Dimethyl-1H-pyrazol-4-yl)-6-(morpholin-4-yl)-9H-purin-8-yl][4-(morpholin-4-yl)piperidin-1-yl]methanone], the half-inhibitory concentration (IC50) was 225 nM in series [3]; 14 nM in series [1]; 14 nM in series [1] (setting [9]); 8820 nM in series [4]; 2.1 µM in series [5]; above 10 µM in series [6].

For `C[C@@H]1CN(CCCNC(=O)c2nc3c(N4CCOCC4)nc(-c4cnn(C)c4)nc3[nH]2)C[C@H](C)O1` [compound 75, N-{3-[cis-2,6-dimethylmorpholin-4-yl]propyl}-2-(1-methyl-1H-pyrazol-4-yl)-6-(morpholin-4-yl)-9H-purine-8-carboxamide], the half-maximal inhibitory concentration (IC50) in series [3] was 84 nM; in series [1], 18 nM; in series [4], above 1000 nM; in series [5] it was above 1 µM; in series [6], above 10 µM.

On to `O=C(c1nc2c(N3CCOCC3)nc(-c3c[nH]nc3C(F)(F)F)nc2[nH]1)N1CCC(N2CCOCC2)CC1` [compound 19, [4-(Morpholin-4-yl)piperidin-1-yl]{6-(morpholin-4-yl)-2-[3-(trifluoromethyl)-1H-pyrazol-4-yl]-9H-purin-8-yl}methanone], for which the 50% inhibitory concentration (IC50) in series [3] was 192 nM; in series [1], 13 nM; in series [1] (setting [9]), 13 nM; in series [4] it was 4050 nM; in series [5] it was 5.67 µM; in series [6], above 10 µM.

As to `O=C(c1nc2c(N3CCOCC3)nc(-c3cn[nH]c3)nc2[nH]1)N1CCC(N2CCOCC2)CC1` [compound 42, [4-(Morpholin-4-yl)piperidin-1-yl][6-(morpholin-4-yl)-2-(1H-pyrazol-4-yl)-9H-purin-8-yl]methanone], the solubility at 30 min in series [2] (setting [7]) is above 1510 µg/mL; in series [2] (setting [8]), 124 µg/mL (≈ 265 µM).

On to `Cn1cc(-c2nc3[nH]c(C(=O)N4CCC(N5CCOCC5)CC4)nc3c(N3CCOCC3)c2F)cn1` [compound 98, [6-Fluoro-5-(1-methyl-1H-pyrazol-4-yl)-7-(morpholin-4-yl)-3H-imidazo[4,5-b]pyridin-2-yl][4-(morpholin-4-yl)piperidin-1-yl]methanone], for which the concentration for half-maximal inhibition (IC50) in series [3] was 43 nM; in series [1], 6 nM; in series [1] (setting [9]), 6 nM; in series [4], above 10000 nM; in series [5] it was above 10 µM; in series [6] it was above 10 µM.

`Cn1cc(-c2cc(N3CCOCC3)c3nc(C(=O)N4CCC(N5CCOCC5)CC4)[nH]c3n2)cn1` [compound 102, [5-(1-Methyl-1H-pyrazol-4-yl)-7-(morpholin-4-yl)-3H-imidazo[4,5-b]pyridin-2-yl][4-(morpholin-4-yl)piperidin-1-yl]methanone]: in series [1], the IC50 is 19 nM. For the same compound, the solubility at 30 min in series [2] (setting [7]) is 932 µg/mL (≈ 1940 µM); in series [2] (setting [8]), 560 µg/mL (≈ 1170 µM).

With `Cn1cc(-c2nc(N3CCOCC3)c3nc(C(=O)NCCCN4CCOCC4)n(C)c3n2)cn1` [compound 67, 9-Methyl-2-(1-methyl-1H-pyrazol-4-yl)-6-(morpholin-4-yl)-N-[3-(morpholin-4-yl)propyl]-9H-purine-8-carboxamide], the IC50 in series [3] was 27 nM; in series [1], 11 nM; in series [1] (setting [9]) it was 11 nM; in series [4] it was above 1000 nM; in series [5] it was above 1 µM; in series [6], above 10 µM.

As for `Cn1cc(-c2nc(N3CCOCC3)c3nc(C(=O)N4CCC(C(C)(C)O)CC4)[nH]c3n2)cn1` [compound 14, [4-(2-Hydroxypropan-2-yl)piperidin-1-yl][2-(1-methyl-1H-pyrazol-4-yl)-6-(morpholin-4-yl)-9H-purin-8-yl]methanone], the IC50 is 810 nM in series [3]; 16 nM in series [1]; 16 nM in series [1] (setting [9]); above 1000 nM in series [4]; 0.584 µM in series [5]; above 10 µM in series [6].

Consider `Cc1nn(C)cc1-c1nc2[nH]c(C(=O)N3CCC(O)CC3)nc2c(N2CCOCC2)c1F` [compound 86, [5-(1,3-Dimethyl-1H-pyrazol-4-yl)-6-fluoro-7-(morpholin-4-yl)-3H-imidazo[4,5-b]pyridin-2-yl](4-hydroxypiperidin-1-yl)methanone], for which the IC50 in series [3] is 222 nM; in series [1] it was 27 nM; in series [1] (setting [9]), 27 nM; in series [4], above 1000 nM; in series [5], 8.46 µM; in series [6], above 10 µM.

On to `CN1CCCC1CCNC(=O)c1nc2c(N3CCOCC3)nc(-c3cnn(C)c3)nc2[nH]1` (stereo not shown) [compound 64, 2-(1-Methyl-1H-pyrazol-4-yl)-N-{2-[1-methylpyrrolidin-2-yl]ethyl}-6-(morpholin-4-yl)-9H-purine-8-carboxamide], for which the IC50 in series [3] is 112 nM; in series [1], 17 nM; in series [1] (setting [9]), 17 nM; in series [4], 984 nM; in series [5], 6.13 µM; in series [6], above 10 µM.
